Measurements reported in US20060040871A1, “Bacterial transforming agent” (priority 2003, published 2006).
Like-named read-outs stand apart in the source and are kept apart here.

How the values were obtained:
MRSA [1] = details: increasing concentrations of glycine in the growth medium; cited from earlier work
[2] = tested on: MRSA with intermediate resistance to glycopeptides; experiment: MIC of vancomycin or teicoplanin for MRSA with intermediate resistance to glycopeptides grown with GBE or NAGly (Table 4); format: cell-based, Staphylococcus aureus; details: GBE 0.001M; for MIC: Staphylococcus aureus
MRSA [3] = experiment: Antimicrobial plus BTA against recent clinical MRSA isolates (Table 7); format: cell-based, Staphylococcus aureus
Text: The four clinical isolates were isolated from patients during the first three months of 2003. […] An intermediate MRSA has been included, as methicillin-resistance has been achieved by means other than production of PBP2a.

MRSA [4] = experiment: MIC of ceftazidime or cefuroxime for MRSA grown with or without GBE (Table 2); format: cell-based, Staphylococcus aureus; details: for MIC of ceftazidime / MIC of cefuroxime: GBE (0.2%)
Text: Importantly, the usefulness of the agents of the present invention is not limited to increasing bacterial sensitivity to methicillin.

S. aureus = experiment: MIC of methicillin for already sensitive S. aureus with GBE, with or without 1% human plasma (Table 6); format: cell-based, Staphylococcus aureus; details: for MIC of methicillin: GBE 0.00075M [0.15%]
Text: As previously mentioned, a common cause of auto-infection is due to S. aureus carried on the anterior nares. […] The transforming agents of the present invention may also be used in combination with a suitable antimicrobial to eliminate nasal carriage of MSSA prior to cardiac surgery or other invasive procedures carrying a high risk of auto-infection.

NCC(=O)O [Glycine, glycine]
effect on MIC of methicillin against MRSA (MRSA [1]): reduces the MIC of methicillin against MRSA

NCC(=O)OCc1ccccc1 [GBE, Glycine Benzyl Ester]
MIC of vancomycin ([2]; L266 (first line), EMRSA-17 (VISA)): 2 µg/mL
MIC of vancomycin ([2]; L266 (second line), EMRSA-17 (VISA)): 1 µg/mL
MIC of vancomycin ([2]; NCTC 12493): 0.12 µg/mL
MIC ([2]; MRSA / NCTC 12493, read-out: MIC of teicoplanin, NCTC 12493): 0.06 µg/mL
MIC ([2]; MRSA, read-out: MIC of teicoplanin, L265, EMRSA-16 (TISA)): 1 µg/mL
MIC ([2]; MRSA, read-out: MIC of teicoplanin, L266, EMRSA-16 (TISA)): 2 µg/mL
Oxacillin (antimicrobial plus BTA; quantity not named, MIC implied) (MRSA [3]; EMRSA-16, +BTA 0.01%): 4 µg/mL
Cephalexin (antimicrobial plus BTA; quantity not named, MIC implied) (MRSA [3]; EMRSA-16, +BTA 0.1%): 2 µg/mL
Oxacillin (antimicrobial plus BTA; quantity not named, MIC implied) (MRSA [3]; EMRSA-16, +BTA 0.1%): 2 µg/mL
Cephalexin (antimicrobial plus BTA; quantity not named, MIC implied) (MRSA [3]; EMRSA-16, +BTA 1.0%): 1 µg/mL
Oxacillin (antimicrobial plus BTA; quantity not named, MIC implied) (MRSA [3]; EMRSA-16, +BTA 1.0%): 1 µg/mL
Vancomycin (antimicrobial plus BTA; quantity not named, MIC implied) (MRSA [3]; EMRSA-16, +BTA 1.0%): 0.25 µg/mL
Oxacillin (antimicrobial plus BTA; quantity not named, MIC implied) (MRSA [3]; EMRSA-17, +BTA 0.01%): 6 µg/mL
Cephalexin (antimicrobial plus BTA; quantity not named, MIC implied) (MRSA [3]; EMRSA-17, +BTA 0.1%): 2 µg/mL
Oxacillin (antimicrobial plus BTA; quantity not named, MIC implied) (MRSA [3]; EMRSA-17, +BTA 0.1%): 2 µg/mL
Cephalexin (antimicrobial plus BTA; quantity not named, MIC implied) (MRSA [3]; EMRSA-17, +BTA 1.0%): 1.5 µg/mL
Oxacillin (antimicrobial plus BTA; quantity not named, MIC implied) (MRSA [3]; EMRSA-17, +BTA 1.0%): 1.5 µg/mL
Vancomycin (antimicrobial plus BTA; quantity not named, MIC implied) (MRSA [3]; EMRSA-17, +BTA 1.0%): 0.25 µg/mL
Oxacillin (antimicrobial plus BTA; quantity not named, MIC implied) (MRSA [3]; I-MRSA, +BTA 0.01%): 2 µg/mL
Cephalexin (antimicrobial plus BTA; quantity not named, MIC implied) (MRSA [3]; I-MRSA, +BTA 0.1%): 1 µg/mL
Oxacillin (antimicrobial plus BTA; quantity not named, MIC implied) (MRSA [3]; I-MRSA, +BTA 0.1%): 1 µg/mL
Cephalexin (antimicrobial plus BTA; quantity not named, MIC implied) (MRSA [3]; I-MRSA, +BTA 1.0%): 0.75 µg/mL
Oxacillin (antimicrobial plus BTA; quantity not named, MIC implied) (MRSA [3]; I-MRSA, +BTA 1.0%): 0.75 µg/mL
Vancomycin (antimicrobial plus BTA; quantity not named, MIC implied) (MRSA [3]; I-MRSA, +BTA 1.0%): < 0.25 µg/mL
MIC of ceftazidime (MRSA [4]; CD40 (EMRSA-1)): 4 µg/mL
MIC of cefuroxime (MRSA [4]; CD40 (EMRSA-1)): 2 µg/mL
MIC of ceftazidime (MRSA [4]; DS09 (EMRSA-1)): 2 µg/mL
MIC of cefuroxime (MRSA [4]; DS09 (EMRSA-1)): 2 µg/mL
MIC of ceftazidime (MRSA [4]; E15-97 (EMRSA-15)): 4 µg/mL
MIC of cefuroxime (MRSA [4]; E15-97 (EMRSA-15)): 4 µg/mL
MIC of ceftazidime (MRSA [4]; E16-96 (EMRSA-16)): 2 µg/mL
MIC of cefuroxime (MRSA [4]; E16-96 (EMRSA-16)): 4 µg/mL
MIC of ceftazidime (MRSA [4]; JF1-32 (EMRSA-1)): 2 µg/mL
MIC of cefuroxime (MRSA [4]; JF1-32 (EMRSA-1)): 2 µg/mL
MIC of ceftazidime (MRSA [4]; MC01 (EMRSA-1)): 2 µg/mL
MIC of cefuroxime (MRSA [4]; MC01 (EMRSA-1)): 4 µg/mL
MIC of ceftazidime (MRSA [4]; NCTC 12493): 2 µg/mL
MIC of cefuroxime (MRSA [4]; NCTC 12493): 4 µg/mL
MIC of ceftazidime (MRSA [4]; PS3-32 (EMRSA-1)): 4 µg/mL
MIC of cefuroxime (MRSA [4]; PS3-32 (EMRSA-1)): 4 µg/mL
MIC of ceftazidime (MRSA [4]; SN31 (EMRSA-1)): 4 µg/mL
MIC of cefuroxime (MRSA [4]; SN31 (EMRSA-1)): 4 µg/mL
MIC of ceftazidime (MRSA [4]; ST11 (EMRSA-1)): 2 µg/mL
MIC of cefuroxime (MRSA [4]; ST11 (EMRSA-1)): 2 µg/mL
MIC of ceftazidime (MRSA [4]; SW2-32 (EMRSA-1)): 4 µg/mL
MIC of cefuroxime (MRSA [4]; SW2-32 (EMRSA-1)): 4 µg/mL
transformation to ceftazidime and cefuroxime sensitivity (MRSA [4]; Table 2): transforms the MRSA tested to ceftazidime and cefuroxime sensitivity
MIC of methicillin (S. aureus; 5518 (EMRSA-1), no plasma): <0.25 µg/mL
MIC of methicillin (S. aureus; 5518 (EMRSA-1), plasma (1%)): 0.5 µg/mL
MIC of methicillin (S. aureus; LHS77, no plasma): <0.25 µg/mL
MIC of methicillin (S. aureus; LHS77, plasma (1%)): <0.25 µg/mL
MIC of methicillin (S. aureus; LHS78, no plasma): <0.25 µg/mL
MIC of methicillin (S. aureus; LHS78, plasma (1%)): 1 µg/mL
MIC of methicillin (S. aureus; LHS79, no plasma): <0.25 µg/mL
MIC of methicillin (S. aureus; LHS79, plasma (1%)): 0.25 µg/mL
MIC of methicillin (S. aureus; LHS80, no plasma): <0.25 µg/mL
MIC of methicillin (S. aureus; LHS80, plasma (1%)): 0.25 µg/mL
MIC of methicillin (S. aureus; LHS81, no plasma): <0.25 µg/mL
MIC of methicillin (S. aureus; LHS81, plasma (1%)): <0.25 µg/mL
MIC of methicillin (S. aureus; LHS82, no plasma): <0.25 µg/mL
MIC of methicillin (S. aureus; LHS82, plasma (1%)): 4 µg/mL
MIC of methicillin (S. aureus; LHS83, no plasma): <0.25 µg/mL
MIC of methicillin (S. aureus; LHS83, plasma (1%)): 0.25 µg/mL
MIC of methicillin (S. aureus; LHS84, no plasma): <0.25 µg/mL
MIC of methicillin (S. aureus; LHS84, plasma (1%)): 2 µg/mL
MIC of methicillin (S. aureus; LHS85, no plasma): <0.25 µg/mL
MIC of methicillin (S. aureus; LHS85, plasma (1%)): 0.5 µg/mL
MIC of methicillin (S. aureus; LHS86, no plasma): <0.25 µg/mL
MIC of methicillin (S. aureus; LHS86, plasma (1%)): 0.25 µg/mL
MIC of methicillin (S. aureus; LHS87, no plasma): <0.25 µg/mL
MIC of methicillin (S. aureus; LHS87, plasma (1%)): 4 µg/mL
MIC of methicillin (S. aureus; LHS88, no plasma): <0.25 µg/mL
MIC of methicillin (S. aureus; LHS88, plasma (1%)): 0.5 µg/mL
MIC of methicillin (S. aureus; LHS89, no plasma): <0.25 µg/mL
MIC of methicillin (S. aureus; LHS89, plasma (1%)): 0.5 µg/mL
MIC of methicillin (S. aureus; LHS90, no plasma): <0.25 µg/mL
MIC of methicillin (S. aureus; LHS90, plasma (1%)): <0.25 µg/mL
MIC of methicillin (S. aureus; LHS91, no plasma): <0.25 µg/mL
MIC of methicillin (S. aureus; LHS91, plasma (1%)): <0.25 µg/mL
MIC of methicillin (S. aureus; LHS92, no plasma): <0.25 µg/mL
MIC of methicillin (S. aureus; LHS92, plasma (1%)): 1 µg/mL
MIC of methicillin (S. aureus; LHS93, no plasma): <0.25 µg/mL
MIC of methicillin (S. aureus; LHS93, plasma (1%)): 0.5 µg/mL
MIC of methicillin (S. aureus; LHS94, no plasma): <0.25 µg/mL
MIC of methicillin (S. aureus; LHS94, plasma (1%)): 0.5 µg/mL
effect on methicillin sensitivity of already sensitive bacteria (S. aureus; Table 6): increases the sensitivity of already sensitive bacteria to methicillin
